From US20170363637A1, “Method and Kit for Determining Risk of Preterm Birth and/or Birth of Low-Birth-Weight Baby” (HIROSHIMA UNIVERSITY, priority 2014, published 2017)

How the values were obtained:
[1] = test system: placental tissues of P.g.-infected mice; experiment: Histological and immunohistochemical observation of placental tissues at gestational age of 17 days; assay type: in vivo, mouse; conditions: placenta at gestational age of 17 days; P.g./N-Lac group vs P.g. group
Method: Immunohistochemical staining was performed in a conventional manner. As PMNL markers, MCA771GA (rat anti-neutrophils antibody, purchased from AbD Serotec (Raleigh, N.C., USA), 1:5000), rabbit monoclonal anti-COX-2 antibody (purchased from Cell Signaling Technology (Danvers, Mass., USA), 1:100), goat anti-TNF-α antibody (purchased from Santa Cruz Biotechnology, Inc. (Santa Cruz, Calif., USA), 1:50), and rat anti-galectin-3 antibody (purchased from BioLegend, Inc (San Diego, Calif., USA), 1:500) were used. A high polymer method (Histofine Max-PO; Nichirei Biosciences) was used for immunohistochemical staining of the markers. Specificity of the antibodies was ascertained by substituting PBS/serum for each antibody.
8-wks-old female C57Bl/6J mice were infected with P.g. w83 strain via the pulp chambers of the first molars. After periapical granuloma, which serves as a persistent source of P.g., was established at 6wks post-infection, mating was started (P.g. group). A half of the mice in P.g. group was intraperitoneally administered with 5 mg/kg of N-Lac (Sigma-Aldrich) at the gestational ages of 12, 15 and 18 days (P.g./N-Lac group). Healthy pregnant mice without P.g. infection were used as a control (NC group). The gestational period was compared among the groups. […]

[2] = test system: C57Bl/6J mice infected with P.g. w83 strain; experiment: Effect of Gal-3 inhibitor on preterm birth induced by dental infection of P.g. (gestational period); assay type: in vivo, mouse; conditions: 5 mg/kg N-Lac intraperitoneally at gestational ages of 12, 15 and 18 days
Method: Effect of a Gal-3 inhibitor, N-acetyllactosamine (N-Lac), on preterm birth induced by dental infection of P.g. was studied.
8-wks-old female C57Bl/6J mice were infected with P.g. w83 strain via the pulp chambers of the first molars. After periapical granuloma, which serves as a persistent source of P.g., was established at 6wks post-infection, mating was started (P.g. group). A half of the mice in P.g. group was intraperitoneally administered with 5 mg/kg of N-Lac (Sigma-Aldrich) at the gestational ages of 12, 15 and 18 days (P.g./N-Lac group). Healthy pregnant mice without P.g. infection were used as a control (NC group). The gestational period was compared among the groups. At the gestational age of 17 days the placental tissues were harvested, and inflammatory cell infiltration (MΦ, neutrophils), damage of endothelial cells (CD31), and immunolocalization of factors promoting delivery (TNF-α, COX-2, and Gal-3) were compared among the groups.

HTR-8 cells [3] = experiment: Effect of Gal-3 inhibitor on human placenta cell line stimulated with P.g.-LPS (Western-blotting); assay type: cell-based
Method: Human trophoblast cell line—HTR-8/Svneo cells were kindly gifted from Prof. Charles H. Graham (Queen's University, Canada). The cells were grown in RPMI 1640 media (Nissui Pharmaceutical Co., Tokyo, Japan) supplemented with 10% heat-inactivated FBS (Invitrogen) and 100 Uml penicillin-streptomycin (Gibco, Tokyo, Japan). For the experiments, cells were seeded at a density of 5×10^5 cells in 35 mm culture dishes. The cells were maintained at 37° C. in a normal atmosphere containing 5% CO2. The cells were stimulated by 1 μg/ml of P.g.-LPS (Invivogen, SanDiego, Calif., USA), expression of Gal-3 mRNA and Gal-3 levels in the culture media were measured at one, two, or three days after the stimulation.
HTR-8 cells were stimulated with P.g.-LPS (1 μg/ml) and N-Lac (10^−9 M and 10^−8 M), and the expression levels of Gal-3, TNF-α, COX-2 and IL-8 in the culture supernatants were measured by RT-PCR and Western-blotting.

HTR-8 cells [4] = experiment: TNF-α stimulation of HTR-8 cells, Gal-3 production; assay type: cell-based, human; conditions: 10 ng/ml rhTNF-α; 2 days post-stimulation; P<0.01
Method: Gal-3 protein levels in the cell culture supernatants were analyzed by Human Galectin-3 Immunoassay (R&D Systems) as the manufacturer recommended. Statistical differences among the experimental groups were evaluated by analysis of T test using GraphPad Prism (version 6.0c, CA, USA) with the level of significance set at P<0.01**.
Effect of TNF-α, which is produced by P.g.-LPS stimulation, on Gal-3 production was studied.
Recombinant human TNF-α (rhTNF-α, purchased from R&D Systems (Minneapolis, Minn., USA)) was applied at 10 ng/ml to HTR-8 cells for 1, 2 or 3 days and the Gal-3 protein levels in the culture media were measured. The cell culture and measurement of the Gal-3 protein levels were performed in the same manner as in Example 6.

[5] = P.g.-LPS 1 μg/ml and N-Lac (10^−9 M and 10^−8 M)

CC(=O)N[C@H]1C(O)O[C@H](CO)[C@@H](O[C@@H]2O[C@H](CO)[C@H](O)[C@H](O)[C@H]2O)[C@@H]1O (some centres unmarked) [N-Lac, N-acetyllactosamine]
decrease of CD31 and expression of TNF-α, COX-2 and Gal-3 in placenta [1]: improved | denature and detachment of the amnion membrane, denature and necrosis of the placenta, increase of inflammatory cell infiltration [1]: not observed | preterm birth induced by P.g. ([2]; p<0.05): significantly suppressed preterm birth | average gestational period ([2]; P.g./N-Lac group, NC 20, P.g. 18.3): 20.7 days | Gal-3 expression upregulated by the P.g.-LPS stimulation (HTR-8 cells [3]; [5]): remarkably reduced | TNF-α expression upregulated by the P.g.-LPS stimulation (HTR-8 cells [3]; [5]): remarkably reduced | expression of TNF-α (HTR-8 cells [3]; incubation with N-Lac (10^−9 M and 10^−8 M)): suppressed

TNF-α
Gal-3 protein level in culture media (HTR-8 cells [4]): significant increased
